From ChEMBL document CHEMBL5390237, “Discovery of Selective Histone Deacetylase 1 and 2 Inhibitors: Screening of a Focused Library Constructed by Click Chemistry, Kinetic Binding Analysis, and Biological Evaluation” (J Med Chem, 2023)

These compounds were tested against T1, Histone deacetylase 2 (Homo sapiens, UniProt Q92769). Conditions: Sf9, time 60.0 min.
T1 sequence (Q92769 whole entry): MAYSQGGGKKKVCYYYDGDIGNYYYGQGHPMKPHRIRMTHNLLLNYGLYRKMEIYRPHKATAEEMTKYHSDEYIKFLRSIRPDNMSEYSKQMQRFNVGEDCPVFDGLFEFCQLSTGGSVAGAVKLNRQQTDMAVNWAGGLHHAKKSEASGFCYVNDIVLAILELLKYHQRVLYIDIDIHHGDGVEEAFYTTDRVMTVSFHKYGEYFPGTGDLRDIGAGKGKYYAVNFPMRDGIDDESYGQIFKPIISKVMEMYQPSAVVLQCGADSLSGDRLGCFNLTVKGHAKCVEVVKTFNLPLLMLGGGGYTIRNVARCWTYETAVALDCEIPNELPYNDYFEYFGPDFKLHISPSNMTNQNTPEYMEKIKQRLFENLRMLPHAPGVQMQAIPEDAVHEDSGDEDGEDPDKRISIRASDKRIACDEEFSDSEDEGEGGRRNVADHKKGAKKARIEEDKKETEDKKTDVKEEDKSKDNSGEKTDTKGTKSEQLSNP

SMILES | ka [M⁻¹ s⁻¹]
CC(=O)Nc1ccc(C(=O)Nc2cc(-c3cccs3)ccc2N)cc1 | 13300

The compounds below were run against T1, Histone deacetylase 2 (assay: Inhibition of full-length recombinant human C-terminal GST tagged HDAC2 expressed in Sf9 insect cells using aminoluciferin peptide substrate at 100 nM preincubated for 3 hrs followed by substrate addition and measured after 30 mins by HDAC-Glo I/II chemiluminescence assay). Conditions: time 3.5 hrs.

SMILES | inhibition [%]
Nc1ccc(-c2ccc(F)cc2)cc1NC(=O)c1cn(-c2ccc(Br)cc2)nn1 | 10
Nc1ccc(-c2ccsc2)cc1NC(=O)CCc1cn(CCc2ccc(C(F)(F)F)cc2)nn1 | 2
Cc1cccc(CCn2cc(C(=O)Nc3cc(-c4ccc(F)cc4)ccc3N)nn2)c1 | 10
Nc1ccc(-c2cccs2)cc1NC(=O)CCc1cn(CCC23CC4CC(CC(C4)C2)C3)nn1 | 5
Nc1ccc(-c2ccc(F)cc2)cc1NC(=O)c1cn(-c2ccc(I)cc2)nn1 | 7
Nc1ccc(-c2ccsc2)cc1NC(=O)c1cn(CCCc2ccccc2)nn1 | 5
Nc1ccc(-c2cccs2)cc1NC(=O)c1cccc(-c2cn(CCc3cccc4ccccc34)nn2)c1 | 0
Nc1ccc(-c2ccc(F)cc2)cc1NC(=O)c1cn(CCc2ccccc2Cl)nn1 | 0
Nc1ccc(-c2ccsc2)cc1NC(=O)c1cn(CCCCC(=O)O)nn1 | 0
Nc1ccc(-c2ccc(F)cc2)cc1NC(=O)CCc1cn(CCc2ccc([N+](=O)[O-])cc2)nn1 | 20
Nc1ccc(-c2ccccc2)cc1NC(=O)CCc1cn(Cc2nc3ccccc3[nH]2)nn1 | 27
Nc1ccc(-c2cccs2)cc1NC(=O)c1cn(CS(=O)(=O)c2ccccc2)nn1 | 17
Nc1ccc(-c2cccs2)cc1NC(=O)c1ccc(-c2cn(Cc3ccc4ccccc4c3)nn2)cc1 | 12
Nc1ccc(-c2ccccc2)cc1NC(=O)CCc1cn(CCCc2ccccc2)nn1 | 9
Nc1ccc(-c2cccs2)cc1NC(=O)c1ccc(-c2cn(-c3ccc([N+](=O)[O-])cc3)nn2)cc1 | 4
Nc1ccc(-n2cc(CCC(=O)Nc3cc(-c4ccsc4)ccc3N)nn2)cc1 | 24
Nc1ccc(-c2cccs2)cc1NC(=O)c1cn(CCc2ccccc2Cl)nn1 | 3
Nc1ccc(-c2cccs2)cc1NC(=O)CCc1cn(CCc2ccc(Cl)cc2)nn1 | 24
Nc1ccc(-c2cccs2)cc1NC(=O)c1cccc(-c2cn(-c3ccccc3-c3ccccc3)nn2)c1 | 0
Nc1ccc(-c2cccs2)cc1NC(=O)CCc1cn(-c2ccc([N+](=O)[O-])cc2)nn1 | 15
Nc1ccc(-c2cccs2)cc1NC(=O)c1cccc(-c2cn(Cc3ccc(Oc4ccccc4)cc3)nn2)c1 | 0
Nc1ccc(-c2ccccc2)cc1NC(=O)CCc1cn(CCc2cccc(C(F)(F)F)c2)nn1 | 1
Nc1ccc(-c2cccs2)cc1NC(=O)CCc1cn(CCc2cccc(F)c2)nn1 | 5

SMILES | inhibition [%]
Nc1ccc(-c2ccsc2)cc1NC(=O)CCc1cn(Cc2ccc3ccccc3c2)nn1 | 16
Nc1ccc(-c2cccs2)cc1NC(=O)c1ccc(-c2cn(CCc3ccsc3)nn2)cc1 | 26
Cc1cccc(CCn2cc(CCC(=O)Nc3cc(-c4ccsc4)ccc3N)nn2)c1 | 26
Nc1ccc(-c2cccs2)cc1NC(=O)c1ccc(-c2cn(CCCCCC(=O)O)nn2)cc1 | 9
CCc1ccc(Cn2cc(-c3ccc(C(=O)Nc4cc(-c5cccs5)ccc4N)cc3)nn2)cc1 | 0
Cc1cccc(C)c1NC(=O)Cn1cc(C(=O)Nc2cc(-c3ccccc3)ccc2N)nn1 | 9
Nc1ccc(-c2ccc(F)cc2)cc1NC(=O)CCc1cn(Cc2ccc3ccccc3c2)nn1 | 15
Nc1ccc(-c2ccccc2)cc1NC(=O)CCc1cn(CCCCCCCC(=O)O)nn1 | 0
Nc1ccc(-c2ccc(F)cc2)cc1NC(=O)c1cn(Cc2ccc(Oc3ccccc3)cc2)nn1 | 5
Nc1ccc(-c2ccc(F)cc2)cc1NC(=O)CCc1cn(CS(=O)(=O)c2ccccc2)nn1 | 13
Nc1ccc(-c2cccs2)cc1NC(=O)CCc1cn(CCCCCc2ccccc2)nn1 | 7
Nc1ccc(-c2ccc(F)cc2)cc1NC(=O)c1cn(CCc2ccc(F)cc2)nn1 | 0
Nc1ccc(-c2cccs2)cc1NC(=O)c1ccc(-c2cn(Cc3cccc(C(=O)O)c3)nn2)s1 | 25
Nc1ccc(-c2ccc(F)cc2)cc1NC(=O)CCc1cn(CC23CC4CC(CC(C4)C2)C3)nn1 | 0
Nc1ccc(-c2cccs2)cc1NC(=O)c1cn(Cc2cccc(C(=O)O)c2)nn1 | 0
Cc1cccc(CCn2cc(C(=O)Nc3cc(-c4ccsc4)ccc3N)nn2)c1 | 7
Nc1ccc(-c2ccccc2)cc1NC(=O)c1cn(-c2ccc([N+](=O)[O-])cc2)nn1 | 0
Nc1ccc(-c2ccsc2)cc1NC(=O)CCc1cn(CCN2CCOCC2)nn1 | 0
Nc1ccc(-c2cccnc2)cc1NC(=O)CCc1cn(Cc2cc3ccccc3s2)nn1 | 9
Cc1ccccc1CCn1cc(CCC(=O)Nc2cc(-c3ccccc3)ccc2N)nn1 | 4
Nc1ccc(-c2ccc(F)cc2)cc1NC(=O)CCc1cn(CCc2cccc(Cl)c2)nn1 | 17
Nc1ccc(-c2cccs2)cc1NC(=O)CCc1cn(-c2ccccc2-c2ccccc2)nn1 | 0
Nc1ccc(-c2cccs2)cc1NC(=O)CCc1cn(CCCc2ccccc2)nn1 | 10

SMILES | inhibition [%]
Nc1ccc(-c2ccccc2)cc1NC(=O)c1cn(Cc2ccc(OC(F)(F)F)cc2)nn1 | 0
Nc1ccc(-c2cccnc2)cc1NC(=O)CCc1cn(-c2ccc(I)cc2)nn1 | 1
Nc1ccc(-c2ccc(F)cc2)cc1NC(=O)CCc1cn(Cc2cccc(-c3ccccc3)c2)nn1 | 0
Nc1ccc(-c2ccsc2)cc1NC(=O)c1cn(Cc2cc3ccccc3s2)nn1 | 0
Nc1ccc(-c2cccs2)cc1NC(=O)c1cccc(-c2cn(CCc3c[nH]c4ccccc34)nn2)c1 | 6
Nc1ccc(-c2cccs2)cc1NC(=O)c1ccc(-c2cn(CCc3ccc(C(F)(F)F)cc3)nn2)s1 | 0
Nc1ccc(-c2ccc(F)cc2)cc1NC(=O)c1cn(CCc2ccccc2C(F)(F)F)nn1 | 0
Nc1ccc(-c2ccc(F)cc2)cc1NC(=O)c1cn(CCc2cccc(F)c2)nn1 | 0
Cc1cccc(CCn2cc(CCC(=O)Nc3cc(-c4cccs4)ccc3N)nn2)c1 | 24
Nc1ccc(-c2cccs2)cc1NC(=O)CCc1cn(CCc2ccc(F)cc2)nn1 | 11
Nc1ccc(-c2ccsc2)cc1NC(=O)CCc1cn(Cc2cc3ccccc3s2)nn1 | 3
Nc1ccc(-c2cccs2)cc1NC(=O)c1ccc(-c2cn(CCc3ccc(F)cc3)nn2)s1 | 18
Nc1ccc(-c2ccsc2)cc1NC(=O)CCc1cn(CCCc2ccccc2)nn1 | 19
Cc1ccccc1CCn1cc(C(=O)Nc2cc(-c3cccs3)ccc2N)nn1 | 0
COc1ccc(CCn2cc(-c3ccc(C(=O)Nc4cc(-c5cccs5)ccc4N)s3)nn2)cc1 | 30
Nc1ccc(-c2ccccc2)cc1NC(=O)CCc1cn(CCc2ccccc2Cl)nn1 | 0
Nc1ccc(-c2ccccc2)cc1NC(=O)CCc1cn(CS(=O)(=O)c2ccccc2)nn1 | 9
Nc1ccc(-c2cccnc2)cc1NC(=O)CCc1cn(CC23CC4CC(CC(C4)C2)C3)nn1 | 2
COc1ccc(CCn2cc(C(=O)Nc3cc(-c4ccsc4)ccc3N)nn2)cc1 | 6
Nc1ccc(-c2cccs2)cc1NC(=O)CCc1cn(Cc2nc3ccccc3[nH]2)nn1 | 19
Nc1ccc(-c2cccnc2)cc1NC(=O)CCc1cn(CS(=O)(=O)c2ccccc2)nn1 | 4
Nc1ccc(-c2ccccc2)cc1NC(=O)c1cn(Cc2cccc(C(=O)O)c2)nn1 | 0
Nc1ccc(-c2cccs2)cc1NC(=O)c1cn(-c2ccc([N+](=O)[O-])cc2)nn1 | 0

SMILES | inhibition [%]
Nc1ccc(-c2cccnc2)cc1NC(=O)CCc1cn(CCc2ccc(F)cc2)nn1 | 3
Nc1ccc(-c2ccsc2)cc1NC(=O)CCc1cn(CCc2ccccn2)nn1 | 12
Nc1ccc(-c2ccsc2)cc1NC(=O)CCc1cn(CCc2ccccc2C(F)(F)F)nn1 | 0
Nc1ccc(-c2cccs2)cc1NC(=O)CCc1cn(Cc2ccc(-c3ccccc3)cc2)nn1 | 0
Nc1ccc(-c2cccs2)cc1NC(=O)c1ccc(-c2cn(CC(=O)c3ccccc3)nn2)s1 | 22
Nc1ccc(-c2cccs2)cc1NC(=O)c1ccc(-c2cn(Cc3ccc(OC(F)(F)F)cc3)nn2)s1 | 0
Nc1ccc(-c2cccs2)cc1NC(=O)c1cn(CCc2ccccn2)nn1 | 0
Nc1ccc(-c2ccccc2)cc1NC(=O)CCc1cn(CC(=O)Nc2ccc(F)cc2)nn1 | 11
COc1ccc(-n2cc(-c3cccc(C(=O)Nc4cc(-c5cccs5)ccc4N)c3)nn2)cc1 | 14
Nc1ccc(-c2ccsc2)cc1NC(=O)c1cn(CCc2ccccc2Cl)nn1 | 0
Nc1ccc(-c2ccccc2)cc1NC(=O)c1cn(CCc2ccc(C(=O)O)cc2)nn1 | 9
Nc1ccc(-c2cccs2)cc1NC(=O)c1cccc(-c2cn(CCc3ccccc3C(F)(F)F)nn2)c1 | 2
Nc1ccc(-c2cccs2)cc1NC(=O)c1ccc(-c2cn(Cc3cccc(-c4ccccc4)c3)nn2)s1 | 0
Nc1ccc(-c2ccc(F)cc2)cc1NC(=O)c1cn(Cc2ccc3ccccc3n2)nn1 | 27
Nc1ccc(-c2cccs2)cc1NC(=O)c1ccc(-c2cn(-c3ccc(O)cc3)nn2)cc1 | 16
Nc1ccc(-c2cccs2)cc1NC(=O)c1cccc(-c2cn(CCc3ccc(Cl)cc3)nn2)c1 | 0
Nc1ccc(-c2cccs2)cc1NC(=O)c1ccc(-c2cn(CC(=O)c3ccccc3)nn2)cc1 | 61
Nc1ccc(-c2cccs2)cc1NC(=O)c1ccc(-c2cn(CC34CC5CC(CC(C5)C3)C4)nn2)cc1 | 0
COc1ccc(-n2cc(-c3ccc(C(=O)Nc4cc(-c5cccs5)ccc4N)s3)nn2)cc1 | 5
Nc1ccc(-c2ccc(F)cc2)cc1NC(=O)c1cn(CCc2c[nH]c3ccccc23)nn1 | 5
Cc1cccc(C)c1NC(=O)Cn1cc(CCC(=O)Nc2cc(-c3cccs3)ccc2N)nn1 | 19
Nc1ccc(-c2ccccc2)cc1NC(=O)c1cn(CCc2ccsc2)nn1 | 0

Target: T1, Histone deacetylase 2
Conditions: Sf9, time 60.0 min
Remark: another data set of the same source

SMILES | Kdiss [s⁻¹]
CC(=O)Nc1ccc(C(=O)Nc2cc(-c3cccs3)ccc2N)cc1 | 6.67e-05
